Data as given in the kinase profiling compilation of Christmann-Franck et al. (2016).

How the values were obtained:
Assay in all cases: KINOMEscan competition binding
Details in all cases: compound 10.0 µM
EPHA6 (human) = EPHA6 (human) (UniProt Q9UF33)
MET (human) = MET (human) (UniProt P08581)
CDK11A (human) = CDK11A (human) (UniProt Q9UQ88)
EIF2AK2 (human) = EIF2AK2 (human) (UniProt P19525)
PDGFRA (human) = PDGFRA (human) (UniProt P16234)
PLK3 (human) = PLK3 (human) (UniProt Q9H4B4)
MLTK (human) = MLTK (human) (UniProt Q9NYL2)
PRKAA2 (human) = PRKAA2 (human) (UniProt P54646)
FGFR4 (human) = FGFR4 (human) (UniProt P22455)
MAPK4 (human) = MAPK4 (human) (UniProt P31152)
ULK3 (human) = ULK3 (human) (UniProt Q6PHR2)
INSRR (human) = INSRR (human) (UniProt P14616)
NEK9 (human) = NEK9 (human) (UniProt Q8TD19)
FGFR3 (human) = FGFR3 (human) (UniProt P22607)
GSK3B (human) = GSK3B (human) (UniProt P49841)
SLK (human) = SLK (human) (UniProt Q9H2G2)
RPS6KA3 KD1 (human) = RPS6KA3 KD1 (human) (UniProt P51812)
SIK1 (human) = SIK1 (human) (UniProt P57059)
PRKACA (human) = PRKACA (human) (UniProt P17612)
MAPK12 (human) = MAPK12 (human) (UniProt P53778)
KDR (human) = KDR (human) (UniProt P35968)
PAK1 (human) = PAK1 (human) (UniProt Q13153)
MST4 (human) = MST4 (human) (UniProt Q9P289)
PRKCD (human) = PRKCD (human) (UniProt Q05655)
NUAK2 (human) = NUAK2 (human) (UniProt Q9H093)
NEK1 (human) = NEK1 (human) (UniProt Q96PY6)
EPHA8 (human) = EPHA8 (human) (UniProt P29322)
LYN (human) = LYN (human) (UniProt P07948)
ANKK1 (human) = ANKK1 (human) (UniProt Q8NFD2)
ROCK2 (human) = ROCK2 (human) (UniProt O75116)
MAPK3 (human) = MAPK3 (human) (UniProt P27361)
ADCK3 (human) = ADCK3 (human) (UniProt Q8NI60)
MAP3K12 (human) = MAP3K12 (human) (UniProt Q12852)
DCLK1 (human) = DCLK1 (human) (UniProt O15075)
PAK3 (human) = PAK3 (human) (UniProt O75914)
[1] = system: RET (human), P07949 [M918T]
CDC2L2 (human) = CDC2L2 (human) (UniProt Q9UQ88)
YES1 (human) = YES1 (human) (UniProt P07947)
CSF1R (human) = CSF1R (human) (UniProt P07333)
[2] = target: JAK1 JH1 catalytic (human) (UniProt P23458)
ABL2 (human) = ABL2 (human) (UniProt P42684)
TNK2 (human) = TNK2 (human) (UniProt Q07912)

Sequence of CDC2L2 (human) (Q9UQ88 whole entry, looked up): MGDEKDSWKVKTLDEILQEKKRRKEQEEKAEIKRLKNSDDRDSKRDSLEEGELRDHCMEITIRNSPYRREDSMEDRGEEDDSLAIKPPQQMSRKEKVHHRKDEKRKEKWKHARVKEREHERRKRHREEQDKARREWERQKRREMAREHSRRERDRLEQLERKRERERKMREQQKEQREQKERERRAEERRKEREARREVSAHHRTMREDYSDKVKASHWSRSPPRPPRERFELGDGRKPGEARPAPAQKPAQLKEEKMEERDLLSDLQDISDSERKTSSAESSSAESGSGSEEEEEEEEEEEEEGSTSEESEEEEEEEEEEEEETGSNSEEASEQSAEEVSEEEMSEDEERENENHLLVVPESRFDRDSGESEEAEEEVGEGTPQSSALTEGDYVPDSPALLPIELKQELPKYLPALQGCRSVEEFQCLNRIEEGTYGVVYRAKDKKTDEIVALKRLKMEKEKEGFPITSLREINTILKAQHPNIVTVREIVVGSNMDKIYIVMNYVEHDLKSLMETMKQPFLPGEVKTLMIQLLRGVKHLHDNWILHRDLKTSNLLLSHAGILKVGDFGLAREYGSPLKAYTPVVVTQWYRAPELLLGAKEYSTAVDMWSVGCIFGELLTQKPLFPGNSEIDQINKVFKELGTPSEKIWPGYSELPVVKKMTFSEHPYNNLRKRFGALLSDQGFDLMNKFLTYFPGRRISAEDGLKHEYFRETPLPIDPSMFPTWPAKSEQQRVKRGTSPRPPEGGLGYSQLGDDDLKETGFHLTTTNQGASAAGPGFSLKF
Sequence of CDK11A (human) (Q9UQ88 whole entry, looked up): as above
Sequence of MAPK4 (human) (P31152 whole entry, looked up): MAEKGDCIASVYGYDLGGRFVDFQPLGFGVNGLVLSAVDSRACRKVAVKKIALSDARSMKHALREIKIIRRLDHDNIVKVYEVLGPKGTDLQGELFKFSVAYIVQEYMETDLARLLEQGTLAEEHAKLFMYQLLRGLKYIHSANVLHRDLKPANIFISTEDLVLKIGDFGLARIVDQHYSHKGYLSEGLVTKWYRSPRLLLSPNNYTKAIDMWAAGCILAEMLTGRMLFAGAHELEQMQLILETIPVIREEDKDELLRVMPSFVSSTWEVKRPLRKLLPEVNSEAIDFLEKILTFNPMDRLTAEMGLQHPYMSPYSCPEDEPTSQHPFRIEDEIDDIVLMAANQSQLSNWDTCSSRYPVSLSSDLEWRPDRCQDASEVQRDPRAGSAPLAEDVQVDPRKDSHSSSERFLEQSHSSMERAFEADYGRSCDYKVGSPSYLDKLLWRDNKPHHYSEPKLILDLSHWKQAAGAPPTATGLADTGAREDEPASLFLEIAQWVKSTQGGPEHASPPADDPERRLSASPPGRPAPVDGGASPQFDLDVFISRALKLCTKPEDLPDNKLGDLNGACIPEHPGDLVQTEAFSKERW
Sequence of EIF2AK2 (human) (P19525 whole entry, looked up): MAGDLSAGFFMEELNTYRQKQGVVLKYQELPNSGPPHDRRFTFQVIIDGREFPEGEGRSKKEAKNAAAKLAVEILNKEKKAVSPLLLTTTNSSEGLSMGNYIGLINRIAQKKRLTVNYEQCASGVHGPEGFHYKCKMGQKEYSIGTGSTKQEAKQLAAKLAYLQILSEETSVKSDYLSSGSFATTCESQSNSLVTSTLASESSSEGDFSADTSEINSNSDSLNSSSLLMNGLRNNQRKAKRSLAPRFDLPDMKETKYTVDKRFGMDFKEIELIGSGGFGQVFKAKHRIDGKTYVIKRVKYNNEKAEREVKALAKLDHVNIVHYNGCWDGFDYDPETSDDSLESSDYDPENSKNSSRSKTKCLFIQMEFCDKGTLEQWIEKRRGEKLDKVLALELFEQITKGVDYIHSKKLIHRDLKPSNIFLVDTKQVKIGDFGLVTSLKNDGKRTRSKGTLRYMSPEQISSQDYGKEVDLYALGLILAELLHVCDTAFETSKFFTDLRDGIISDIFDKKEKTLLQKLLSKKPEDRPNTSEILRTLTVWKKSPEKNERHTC
Sequence of PLK3 (human) (Q9H4B4 whole entry, looked up): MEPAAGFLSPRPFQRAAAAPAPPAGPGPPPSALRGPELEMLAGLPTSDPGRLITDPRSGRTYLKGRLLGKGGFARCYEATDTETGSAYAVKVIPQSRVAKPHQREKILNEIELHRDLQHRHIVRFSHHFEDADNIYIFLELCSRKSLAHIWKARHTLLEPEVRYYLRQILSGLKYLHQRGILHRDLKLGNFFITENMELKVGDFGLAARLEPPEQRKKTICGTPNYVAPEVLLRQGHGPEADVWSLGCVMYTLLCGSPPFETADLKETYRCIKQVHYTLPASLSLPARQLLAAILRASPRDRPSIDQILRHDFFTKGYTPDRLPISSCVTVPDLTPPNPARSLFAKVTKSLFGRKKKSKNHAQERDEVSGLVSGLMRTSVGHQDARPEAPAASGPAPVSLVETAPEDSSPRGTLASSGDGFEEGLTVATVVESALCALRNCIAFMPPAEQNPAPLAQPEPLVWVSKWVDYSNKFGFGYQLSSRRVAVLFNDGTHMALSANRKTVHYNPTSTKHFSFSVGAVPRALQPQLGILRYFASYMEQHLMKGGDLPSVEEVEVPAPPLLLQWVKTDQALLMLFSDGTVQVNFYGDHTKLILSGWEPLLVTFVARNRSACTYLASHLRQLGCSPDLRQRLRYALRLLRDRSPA
Sequence of SIK1 (human) (P57059 whole entry, looked up): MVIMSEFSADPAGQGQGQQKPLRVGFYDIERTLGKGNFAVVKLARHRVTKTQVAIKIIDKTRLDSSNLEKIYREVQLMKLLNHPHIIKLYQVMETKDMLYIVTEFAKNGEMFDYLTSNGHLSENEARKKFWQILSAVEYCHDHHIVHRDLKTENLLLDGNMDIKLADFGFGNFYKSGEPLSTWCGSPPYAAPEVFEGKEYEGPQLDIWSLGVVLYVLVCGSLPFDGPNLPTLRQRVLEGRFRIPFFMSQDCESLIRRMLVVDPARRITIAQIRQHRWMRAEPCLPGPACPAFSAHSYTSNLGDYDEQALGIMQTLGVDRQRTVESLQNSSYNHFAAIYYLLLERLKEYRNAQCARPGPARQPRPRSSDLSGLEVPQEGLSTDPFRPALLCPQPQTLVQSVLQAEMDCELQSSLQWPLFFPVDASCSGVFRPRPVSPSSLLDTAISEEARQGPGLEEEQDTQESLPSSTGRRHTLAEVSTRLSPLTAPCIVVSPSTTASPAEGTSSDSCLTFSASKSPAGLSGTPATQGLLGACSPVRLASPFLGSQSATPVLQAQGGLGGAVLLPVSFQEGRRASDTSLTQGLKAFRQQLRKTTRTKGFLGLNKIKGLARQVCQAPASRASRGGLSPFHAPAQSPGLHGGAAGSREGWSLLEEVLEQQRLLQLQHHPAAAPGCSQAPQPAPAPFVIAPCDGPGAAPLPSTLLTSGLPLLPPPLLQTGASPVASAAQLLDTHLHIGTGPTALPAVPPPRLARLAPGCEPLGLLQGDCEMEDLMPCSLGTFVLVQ
Sequence of RET (human), P07949 [M918T] (P07949 whole entry M918T, looked up): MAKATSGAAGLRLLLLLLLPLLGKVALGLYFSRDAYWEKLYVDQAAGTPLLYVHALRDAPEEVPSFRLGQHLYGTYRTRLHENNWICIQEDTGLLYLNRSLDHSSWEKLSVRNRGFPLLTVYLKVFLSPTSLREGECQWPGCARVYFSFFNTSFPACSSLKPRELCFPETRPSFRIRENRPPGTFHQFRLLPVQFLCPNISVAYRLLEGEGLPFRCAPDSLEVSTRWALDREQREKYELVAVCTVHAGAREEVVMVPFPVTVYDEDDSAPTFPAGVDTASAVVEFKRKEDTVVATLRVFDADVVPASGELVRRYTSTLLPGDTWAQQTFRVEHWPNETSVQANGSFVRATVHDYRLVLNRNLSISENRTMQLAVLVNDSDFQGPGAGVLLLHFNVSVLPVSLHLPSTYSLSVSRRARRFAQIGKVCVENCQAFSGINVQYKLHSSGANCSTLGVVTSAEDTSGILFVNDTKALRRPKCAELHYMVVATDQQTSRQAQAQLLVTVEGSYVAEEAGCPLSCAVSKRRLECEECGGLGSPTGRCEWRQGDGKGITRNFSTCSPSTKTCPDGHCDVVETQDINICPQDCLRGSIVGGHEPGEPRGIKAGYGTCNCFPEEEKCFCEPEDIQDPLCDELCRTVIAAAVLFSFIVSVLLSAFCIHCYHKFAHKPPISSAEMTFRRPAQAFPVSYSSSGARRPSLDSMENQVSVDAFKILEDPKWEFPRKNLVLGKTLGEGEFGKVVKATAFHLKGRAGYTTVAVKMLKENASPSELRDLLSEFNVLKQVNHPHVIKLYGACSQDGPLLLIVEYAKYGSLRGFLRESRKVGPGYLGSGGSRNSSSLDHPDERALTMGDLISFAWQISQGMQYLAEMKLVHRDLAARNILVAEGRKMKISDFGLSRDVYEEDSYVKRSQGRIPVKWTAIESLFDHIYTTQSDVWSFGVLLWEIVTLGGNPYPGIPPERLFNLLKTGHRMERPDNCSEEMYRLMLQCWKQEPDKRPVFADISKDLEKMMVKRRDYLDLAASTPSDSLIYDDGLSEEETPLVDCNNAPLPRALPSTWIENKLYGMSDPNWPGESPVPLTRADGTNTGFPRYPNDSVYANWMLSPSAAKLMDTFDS
Sequence of YES1 (human) (P07947 whole entry, looked up): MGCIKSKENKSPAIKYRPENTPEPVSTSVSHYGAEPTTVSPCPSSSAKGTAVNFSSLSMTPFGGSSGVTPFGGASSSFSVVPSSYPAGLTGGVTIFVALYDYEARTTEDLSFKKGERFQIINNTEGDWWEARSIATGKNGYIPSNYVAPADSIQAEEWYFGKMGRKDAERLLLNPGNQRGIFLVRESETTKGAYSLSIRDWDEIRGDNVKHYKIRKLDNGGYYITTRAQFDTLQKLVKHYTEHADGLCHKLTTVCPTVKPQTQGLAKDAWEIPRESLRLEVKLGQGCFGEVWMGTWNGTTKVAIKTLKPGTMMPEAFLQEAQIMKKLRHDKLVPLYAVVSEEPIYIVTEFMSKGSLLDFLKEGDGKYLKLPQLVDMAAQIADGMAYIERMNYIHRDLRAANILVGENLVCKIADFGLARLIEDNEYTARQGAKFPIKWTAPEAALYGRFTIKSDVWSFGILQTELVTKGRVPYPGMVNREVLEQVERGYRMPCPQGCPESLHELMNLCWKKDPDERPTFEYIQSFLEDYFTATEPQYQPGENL

Compound: COc1cc(N2CCN(C)CC2)ccc1Nc1ncc2c(n1)N(C)c1ccccc1N(C)C2=O
- kinase still bound, per cent of control (EPHA6 (human)): 100%
- kinase still bound, per cent of control (MET (human)): 90%
- kinase still bound, per cent of control (CDK11A (human)): 80%
- kinase still bound, per cent of control (EIF2AK2 (human)): 93%
- kinase still bound, per cent of control (PDGFRA (human)): 100%
- kinase still bound, per cent of control (PLK3 (human)): 100%
- kinase still bound, per cent of control (MLTK (human)): 100%
- kinase still bound, per cent of control (PRKAA2 (human)): 94%
- kinase still bound, per cent of control (FGFR4 (human)): 97%
- kinase still bound, per cent of control (MAPK4 (human)): 100%
- kinase still bound, per cent of control (ULK3 (human)): 100%
- kinase still bound, per cent of control (INSRR (human)): 55%
- kinase still bound, per cent of control (NEK9 (human)): 97%
- kinase still bound, per cent of control (FGFR3 (human)): 100%
- kinase still bound, per cent of control (GSK3B (human)): 82%
- kinase still bound, per cent of control (SLK (human)): 100%
- kinase still bound, per cent of control (RPS6KA3 KD1 (human)): 92%
- kinase still bound, per cent of control (SIK1 (human)): 100%
- kinase still bound, per cent of control (PRKACA (human)): 100%
- kinase still bound, per cent of control (MAPK12 (human)): 78%
- kinase still bound, per cent of control (KDR (human)): 100%
- kinase still bound, per cent of control (PAK1 (human)): 92%
- kinase still bound, per cent of control (MST4 (human)): 91%
- kinase still bound, per cent of control (PRKCD (human)): 100%
- kinase still bound, per cent of control (NUAK2 (human)): 100%
- kinase still bound, per cent of control (NEK1 (human)): 96%
- kinase still bound, per cent of control (EPHA8 (human)): 100%
- kinase still bound, per cent of control (LYN (human)): 79%
- kinase still bound, per cent of control (ANKK1 (human)): 91%
- kinase still bound, per cent of control (ROCK2 (human)): 50%
- kinase still bound, per cent of control (MAPK3 (human)): 100%
- kinase still bound, per cent of control (ADCK3 (human)): 85%
- kinase still bound, per cent of control (MAP3K12 (human)): 100%
- kinase still bound, per cent of control (DCLK1 (human)): 56%
- kinase still bound, per cent of control (PAK3 (human)): 93%
- kinase still bound, per cent of control [1]: 100%
- kinase still bound, per cent of control (CDC2L2 (human)): 100%
- kinase still bound, per cent of control (YES1 (human)): 100%
- kinase still bound, per cent of control (CSF1R (human)): 27%
- kinase still bound, per cent of control [2]: 53%
- kinase still bound, per cent of control (ABL2 (human)): 98%
- kinase still bound, per cent of control (TNK2 (human)): 20%
